Data as given in the supplement of paper PMC10307832.

Legend:
Assay in all cases: relative viability (nuclei count vs DMSO), 5 days (fraction); higher = more cells survive
[1] = compound: COc1cc2ncn(-c3cc(OCc4ccccc4C(F)(F)F)c(C(N)=O)s3)c2cc1OC + Cc1nc(Nc2ncc(C(=O)Nc3c(C)cccc3Cl)s2)cc(N2CCN(CCO)CC2)n1 [Dasatinib] (partner 0.075 µM)
In short: (§1)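 Lung cancer cell lines were seeded in 1536-well plates and dosed by pin tool the next day, with either a single drug or a fixed anchor-drug dose combined with five library-drug doses (not always all listed) spaced in √10 steps. Five days later, one step fixed the cells and stained their nuclei (final 0.05% Triton X-100, 1% formaldehyde, 1 ug/ml Hoechst), and nuclei were counted on 4× images. Relative viability is the nuclei count in treated wells divided by the count in vehicle wells, and each value is the median of duplicate plates.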

[2] = compound: COc1cc2ncn(-c3cc(OCc4ccccc4C(F)(F)F)c(C(N)=O)s3)c2cc1OC + CC1(C)CCC(c2ccc(Cl)cc2)=C(CN2CCN(c3ccc(C(=O)NS(=O)(=O)c4ccc(N[C@H](CCN5CCOCC5)CSc5ccccc5)c(S(=O)(=O)C(F)(F)F)c4)cc3)CC2)C1 [Navitoclax] (partner 0.5 µM)
In short: as §1

[3] = compound: COc1cc2ncn(-c3cc(OCc4ccccc4C(F)(F)F)c(C(N)=O)s3)c2cc1OC + CCNC(=O)c1noc(-c2cc(C(C)C)c(O)cc2O)c1-c1ccc(CN2CCOCC2)cc1 [Luminespib] (partner 0.01 µM)
In short: as §1

[4] = compound: COc1cc2ncn(-c3cc(OCc4ccccc4C(F)(F)F)c(C(N)=O)s3)c2cc1OC + CC(C)C[C@H](NC(=O)[C@H](Cc1ccccc1)NC(=O)c1cnccn1)B(O)O [Bortezomib] (partner 0.002 µM)
In short: as §1

Cell Line	relative viability ([1]; first compound 0.05 µM)	relative viability ([1]; first compound 0.1581 µM)	relative viability ([1]; first compound 0.5 µM)	relative viability ([1]; first compound 1.581 µM)	relative viability ([1]; first compound 5 µM)	relative viability ([2]; first compound 0.05 µM)	relative viability ([2]; first compound 0.1581 µM)	relative viability ([2]; first compound 0.5 µM)	relative viability ([2]; first compound 1.581 µM)	relative viability ([2]; first compound 5 µM)	relative viability ([3]; first compound 0.05 µM)	relative viability ([3]; first compound 0.1581 µM)	relative viability ([3]; first compound 0.5 µM)	relative viability ([3]; first compound 1.581 µM)	relative viability ([3]; first compound 5 µM)	relative viability ([4]; first compound 0.05 µM)	relative viability ([4]; first compound 0.1581 µM)	relative viability ([4]; first compound 0.5 µM)	relative viability ([4]; first compound 1.581 µM)	relative viability ([4]; first compound 5 µM)
NCI-H1734	0.477	0.516	0.387	0.197	0.129	0.824	0.806	0.35	0.133	0.0981	0.18	0.239	0.17	0.147	0.125	1.01	0.884	0.59	0.234	0.143
NCI-H1755	0.445	0.402	0.315	0.222	0.207	1.04	0.957	0.653	0.222	0.183	0.463	0.388	0.474	0.224	0.181	0.958	0.965	0.843	0.355	0.278
NCI-H1792	0.786	0.757	0.372	0.287	0.25	0.633	0.627	0.604	0.188	0.13	0.509	0.397	0.339	0.208	0.185	0.958	0.91	0.88	0.423	0.223
NCI-H1915	0.365	0.281	0.316	0.0798	0.0572	0.758	0.739	0.539	0.0643	0.0409	0.796	0.713	0.389	0.0805	0.0432	1.04	0.925	0.853	0.107	0.0772
NCI-H1975	0.415	0.335	0.207	0.126	0.109	0.88	1.01	0.529	0.168	0.174	0.229	0.26	0.184	0.163	0.233	0.371	0.335	0.182	0.144	0.115
NCI-H1993	0.649	0.555	0.528	0.503	0.424	1.22	0.912	0.602	0.507	0.503	0.756	0.8	0.548	0.463	0.448	1.09	1.13	0.874	0.618	0.516
NCI-H2009	0.297	0.256	0.152	0.128	0.0782	1.14	1.07	0.666	0.0806	0.0608	1.03	0.941	0.819	0.127	0.101	0.965	0.831	0.289	0.149	0.113
NCI-H2023	0.566	0.532	0.355	0.096	0.0804	0.977	1.1	0.867	0.0884	0.0956	0.735	0.679	0.299	0.0886	0.0831	0.998	1.24	0.403	0.0876	0.0864
NCI-H2085	0.23	0.233	0.221	0.217	0.209	1.2	1.09	0.593	0.367	0.365	0.37	0.401	0.357	0.273	0.253	0.968	1.11	0.796	0.529	0.362
NCI-H2087	0.8	0.656	0.583	0.117	0.075	1.04	0.974	0.194	0.136	0.134	0.174	0.177	0.162	0.14	0.167	0.768	0.782	0.484	0.167	0.131
NCI-H2126	0.584	0.638	0.463	0.248	0.221	0.856	0.834	0.662	0.284	0.225	0.957	0.875	0.532	0.288	0.265	1.16	1.16	1.03	0.398	0.314
NCI-H2228	0.381	0.472	0.176	0.132	0.181	1.05	1.3	0.167	0.0999	0.105	0.114	0.159	0.147	0.139	0.126	1.01	0.849	0.208	0.182	0.18
NCI-H2347	0.32	0.258	0.278	0.228	0.258	0.78	1.01	0.566	0.38	0.579	0.522	0.303	0.419	0.346	0.465	1.1	0.861	0.543	0.372	0.479
NCI-H2405	0.24	0.21	0.171	0.162	0.131	0.931	0.69	0.16	0.0992	0.0957	0.76	0.601	0.341	0.283	0.338	1.02	0.492	0.835	0.401	0.557
NCI-H3122	0.895	0.562	0.373	0.125	0.0999	1.05	1.01	0.212	0.189	0.202	0.0893	0.0896	0.149	0.0746	0.0906	1.05	0.951	0.709	0.183	0.227
PC-3 [JPC-3]	0.943	0.98	0.767	0.174	0.168	0.757	0.715	0.471	0.27	0.238	0.66	0.712	0.486	0.221	0.19	0.863	0.803	0.775	0.285	0.231
